# Measurements taken from the Kinase Knowledgebase extract (Sharma et al. 2016).
# Biological target: ROCK2 (human) (UniProt O75116)
# Assay: Assessment of ROCK2 Kinase Activity
# ROCK2 (human), sequence (O75116 whole entry, looked up): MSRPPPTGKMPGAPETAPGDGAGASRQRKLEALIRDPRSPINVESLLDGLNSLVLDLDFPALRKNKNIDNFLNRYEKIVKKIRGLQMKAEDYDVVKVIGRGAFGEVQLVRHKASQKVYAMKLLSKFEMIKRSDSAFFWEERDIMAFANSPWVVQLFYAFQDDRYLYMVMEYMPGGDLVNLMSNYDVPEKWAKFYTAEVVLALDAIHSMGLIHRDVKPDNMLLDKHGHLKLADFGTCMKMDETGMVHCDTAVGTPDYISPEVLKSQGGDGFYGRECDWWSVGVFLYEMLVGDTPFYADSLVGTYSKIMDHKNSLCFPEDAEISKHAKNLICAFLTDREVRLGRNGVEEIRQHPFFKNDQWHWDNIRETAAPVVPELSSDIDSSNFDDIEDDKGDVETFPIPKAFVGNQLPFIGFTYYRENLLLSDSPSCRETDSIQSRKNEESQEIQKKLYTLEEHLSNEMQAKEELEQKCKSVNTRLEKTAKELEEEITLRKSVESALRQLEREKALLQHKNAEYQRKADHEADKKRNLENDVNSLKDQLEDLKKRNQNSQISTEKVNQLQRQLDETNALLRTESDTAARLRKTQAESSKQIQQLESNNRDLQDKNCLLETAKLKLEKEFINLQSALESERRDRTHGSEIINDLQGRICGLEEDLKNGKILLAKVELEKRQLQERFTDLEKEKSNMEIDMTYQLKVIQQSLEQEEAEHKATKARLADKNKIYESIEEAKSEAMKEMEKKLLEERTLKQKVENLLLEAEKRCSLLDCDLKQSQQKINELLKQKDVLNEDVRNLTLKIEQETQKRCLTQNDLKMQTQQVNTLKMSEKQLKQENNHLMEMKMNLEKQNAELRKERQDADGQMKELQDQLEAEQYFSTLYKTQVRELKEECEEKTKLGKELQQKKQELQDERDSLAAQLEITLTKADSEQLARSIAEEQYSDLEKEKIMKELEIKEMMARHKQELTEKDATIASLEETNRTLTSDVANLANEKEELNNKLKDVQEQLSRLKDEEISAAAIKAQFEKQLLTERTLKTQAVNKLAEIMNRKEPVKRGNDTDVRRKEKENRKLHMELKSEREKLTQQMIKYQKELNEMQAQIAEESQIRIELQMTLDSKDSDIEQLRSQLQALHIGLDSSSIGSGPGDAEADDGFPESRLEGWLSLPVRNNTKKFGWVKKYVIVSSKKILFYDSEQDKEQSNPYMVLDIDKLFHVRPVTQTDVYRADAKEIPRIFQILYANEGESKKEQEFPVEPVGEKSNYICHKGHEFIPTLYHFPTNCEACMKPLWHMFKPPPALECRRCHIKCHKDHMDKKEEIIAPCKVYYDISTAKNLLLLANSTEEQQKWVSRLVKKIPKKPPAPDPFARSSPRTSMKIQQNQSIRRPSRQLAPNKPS
row,IC50 [nM],Structure (SMILES)
1,6,CCN(Cc1cccc(OC)c1)C(=O)Nc1ccc(-c2cn[nH]c2)cc1N(C)CCN(C)C
2,5,COc1cccc(CNC(=O)Nc2ccc(-c3ccncc3)cc2)c1
3,2,COc1cccc(CNC(=O)Nc2ccc(-c3cn[nH]c3)cc2)c1
4,< 1,COc1cccc(CNC(=O)Nc2ccc(-c3cn[nH]c3)cc2OCCN2CCCC2)c1
5,< 1,COc1cccc(CNC(=O)Nc2ccc(-c3cn[nH]c3)cc2OC)c1
6,8,COc1cccc(CN(C)C(=O)Nc2ccc(-c3cn[nH]c3)cc2N(C)CCN(C)C)c1
7,< 1,COc1cccc(CNC(=O)Nc2ccc(-c3cn[nH]c3)cc2Cl)c1
8,188,COc1cccc(CNC(=O)Nc2ccc(-c3ncnc4[nH]ccc34)cc2)c1
9,2,COc1cccc(CNC(=O)Nc2ccc(-c3c[nH]nc3C)cc2)c1
10,< 1,COc1cccc(CNC(=O)Nc2ccc(-c3cn[nH]c3)cc2OCCN(C)C)c1
11,44,COc1cccc(CNC(=O)Nc2ccc(-c3ccnc(N)c3)cc2)c1
12,3,CCN(Cc1cccc(OC)c1)C(=O)Nc1ccc(-c2cn[nH]c2)cc1OCCN(C)C
13,3,Nc1cccc(CNC(=O)Nc2ccc(-c3cn[nH]c3)cc2)c1
14,< 1,COc1cccc(CNC(=O)Nc2ccc(-c3cn[nH]c3)cc2N(C)C)c1
15,17,O=C(NCc1cccc(Cl)c1)Nc1ccc(-c2cn[nH]c2)cc1
16,< 1,COc1cccc(CN(C)C(=O)Nc2ccc(-c3cn[nH]c3)cc2OCCN(C)C)c1
17,33,Cc1cccc(CNC(=O)Nc2ccc(-c3cn[nH]c3)cc2)c1
18,26,COc1ccccc1CNC(=O)Nc1ccc(-c2cn[nH]c2)cc1
19,< 1,COc1cccc(CNC(=O)Nc2ccc(-c3cn[nH]c3)cc2F)c1
20,2750,COc1ccc(CNC(=O)Nc2ccc(-c3cn[nH]c3)cc2)cc1
21,3,O=C(NCc1cccc(F)c1)Nc1ccc(-c2cn[nH]c2)cc1
22,13,COc1cccc(CNC(=O)Nc2ccc(-c3ccnc(N)n3)cc2)c1
23,18,O=C(NCc1ccccc1)Nc1ccc(-c2cn[nH]c2)cc1
24,< 1,COc1cccc(CN(C)C(=O)Nc2ccc(-c3cn[nH]c3)cc2OCCN2CCCC2)c1
25,< 1,COc1cccc(CNC(=O)Nc2ccc(-c3cn[nH]c3)cc2N(C)CCN(C)C)c1
26,< 1,CCN(Cc1cccc(OC)c1)C(=O)Nc1ccc(-c2cn[nH]c2)cc1OCCN1CCCC1
